Assay results from the NIST ThermoML archive (doi:10.1021/je500433d).
Several values for one entry are separate records, joined by “and”; a condition that tells them apart may be missing. Equal values may be shown once. Numbers after ± are expanded uncertainties.

Conditions: Liquid, Alternating current cell with electrodes

SMILES: [Be+2].[Cl-].[Cl-] [beryllium chloride]
- electrical conductivity (693.15 K): 74.7 ± 5 S/m
- electrical conductivity (695.15 K): 80.5 ± 4.4 S/m
- electrical conductivity (698.65 K): 87.7 ± 5.1 S/m
- electrical conductivity (701.65 K): 96.1 ± 5.9 S/m
- electrical conductivity (705.65 K): 107 ± 7.6 S/m
- electrical conductivity (711.65 K): 132 ± 8.4 S/m
- electrical conductivity (714.65 K): 143 ± 8.7 S/m
- electrical conductivity (719.65 K): 165 ± 9.3 S/m
- electrical conductivity (721.65 K): 174 ± 9.4 S/m
- electrical conductivity (724.65 K): 186 ± 9.2 S/m
- electrical conductivity (726.15 K): 193 ± 12 S/m
- electrical conductivity (728.15 K): 202 ± 13 S/m
- electrical conductivity (735.65 K): 253 ± 15 S/m
- electrical conductivity (738.15 K): 270 ± 16 S/m
- electrical conductivity (739.65 K): 288 ± 17 S/m
- electrical conductivity (741.65 K): 297 ± 18 S/m
- electrical conductivity (744.65 K): 327 ± 20 S/m
- electrical conductivity (746.15 K): 335 ± 20 S/m
- electrical conductivity (747.15 K): 348 ± 19 S/m
- electrical conductivity (750.15 K): 376 ± 24 S/m
- electrical conductivity (752.15 K): 398 ± 23 S/m
- electrical conductivity (755.15 K): 437 ± 17 S/m
- electrical conductivity (759.65 K): 454 ± 19 S/m
- electrical conductivity (761.15 K): 488 ± 21 S/m
- electrical conductivity (763.15 K): 505 ± 29 S/m
- electrical conductivity (765.15 K): 531 ± 29 S/m
- electrical conductivity (766.35 K): 545 ± 32 S/m
- electrical conductivity (767.35 K): 572 ± 33 S/m
- electrical conductivity (770.15 K): 610 ± 26 S/m
- electrical conductivity (772.85 K): 636 ± 27 S/m
- electrical conductivity (775.15 K): 670 ± 33 S/m
- electrical conductivity (777.65 K): 707 ± 23 S/m
- electrical conductivity (781.65 K): 730 ± 32 S/m
- electrical conductivity (783.65 K): 763 ± 30 S/m
- electrical conductivity (786.15 K): 824 ± 41 S/m
- electrical conductivity (787.15 K): 836 ± 42 S/m
- electrical conductivity (788.15 K): 851 ± 40 S/m
- electrical conductivity (790.15 K): 887 ± 37 S/m
- electrical conductivity (793.15 K): 935 ± 34 S/m
- electrical conductivity (795.15 K): 954 ± 40 S/m
- electrical conductivity (795.65 K): 966 ± 41 S/m
- electrical conductivity (797.15 K): 1010 ± 41 S/m
- electrical conductivity (801.65 K): 1090 ± 37 S/m
- electrical conductivity (807.65 K): 1160 ± 37 S/m
- electrical conductivity (809.65 K): 1180 ± 38 S/m
- electrical conductivity (822.65 K): 1390 ± 42 S/m

SMILES: [Cl][Pb][Cl] [lead(2+) dichloride]
- electrical conductivity (783.15 K): 150 ± 3.2 S/m
- electrical conductivity (800.15 K): 159 ± 3.3 S/m
- electrical conductivity (824.15 K): 170 ± 3.5 S/m
- electrical conductivity (854.15 K): 185 ± 3.8 S/m
- electrical conductivity (883.15 K): 197 ± 4 S/m
- electrical conductivity (913.15 K): 210 ± 4.3 S/m
- electrical conductivity (943.15 K): 221 ± 4.5 S/m
- electrical conductivity (972.15 K): 233 ± 4.7 S/m
- electrical conductivity (1001.1 K): 244 ± 4.9 S/m
- electrical conductivity (1030.2 K): 254 ± 5.1 S/m
- electrical conductivity (1058.2 K): 263 ± 5.3 S/m
- electrical conductivity (1090.2 K): 272 ± 5.5 S/m
- electrical conductivity (1118.2 K): 279 ± 5.6 S/m
- electrical conductivity (1149.2 K): 286 ± 5.7 S/m
- electrical conductivity (1177.2 K): 292 ± 5.8 S/m
- electrical conductivity (1210.2 K): 298 ± 6 S/m
- electrical conductivity (1230.2 K): 302 ± 6.1 S/m
- electrical conductivity (1254.2 K): 309 ± 6.2 S/m
- electrical conductivity (1279.2 K): 315 ± 6.3 S/m
- electrical conductivity (1297.2 K): 318 ± 6.4 S/m
- electrical conductivity (1320.2 K): 321 ± 6.4 S/m

SMILES: [Cl-].[Cl-].[Zn+2] [zinc chloride]
- electrical conductivity (558.15 K): 0.0363 ± 0.0042 S/m
- electrical conductivity (568.15 K): 0.0568 ± 0.0052 S/m
- electrical conductivity (578.15 K): 0.0874 ± 0.0076 S/m
- electrical conductivity (588.15 K): 0.131 ± 0.0095 S/m
- electrical conductivity (598.15 K): 0.179 ± 0.016 S/m
- electrical conductivity (618.15 K): 0.36 ± 0.03 S/m
- electrical conductivity (638.15 K): 0.646 ± 0.051 S/m
- electrical conductivity (681.15 K): 1.86 ± 0.09 S/m
- electrical conductivity (717.15 K): 3.93 ± 0.15 S/m
- electrical conductivity (739.15 K): 5.57 ± 0.2 S/m
- electrical conductivity (756.65 K): 7.13 S/m
- electrical conductivity (814.65 K): 14.4 ± 0.41 S/m
- electrical conductivity (814.95 K): 14.4 ± 0.41 S/m
- electrical conductivity (858.65 K): 21.9 ± 0.57 S/m
- electrical conductivity (879.15 K): 26.3 ± 0.66 S/m
- electrical conductivity (893.15 K): 28.8 ± 0.73 S/m
- electrical conductivity (936.15 K): 38.8 ± 0.91 S/m
- electrical conductivity (970.15 K): 47 ± 1.1 S/m
- electrical conductivity (974.65 K): 48.1 ± 1.1 S/m
- electrical conductivity (981.15 K): 49.8 ± 1.1 S/m
- electrical conductivity (1005.1 K): 55.4 ± 1.2 S/m
- electrical conductivity (1030.2 K): 61.4 ± 1.3 S/m
- electrical conductivity (1062.2 K): 69.2 ± 1.5 S/m
- electrical conductivity (1078.2 K): 73.5 S/m and 74.2 S/m
- electrical conductivity (1092.2 K): 76.8 ± 1.6 S/m
- electrical conductivity (1100.2 K): 79.2 ± 1.7 S/m
- electrical conductivity (1110.2 K): 81.2 ± 1.7 S/m
- electrical conductivity (1114.2 K): 82.8 ± 1.7 S/m
- electrical conductivity (1128.2 K): 85.7 ± 1.9 S/m
- electrical conductivity (1131.2 K): 87.1 ± 1.8 S/m
- electrical conductivity (1143.2 K): 89 ± 1.8 S/m
- electrical conductivity (1144.7 K): 90.3 ± 1.9 S/m
- electrical conductivity (1163.2 K): 93.5 ± 2.2 S/m
- electrical conductivity (1167.2 K): 95.9 ± 2.3 S/m
- electrical conductivity (1183.7 K): 100 ± 2.1 S/m
- electrical conductivity (1195.7 K): 103 ± 2.1 S/m
- electrical conductivity (1214.2 K): 107 ± 2.2 S/m
- electrical conductivity (1225.2 K): 110 ± 2.2 S/m
- electrical conductivity (1236.2 K): 113 ± 2.3 S/m
- electrical conductivity (1245.7 K): 115 ± 2.3 S/m
- electrical conductivity (1259.7 K): 118 ± 2.4 S/m
- electrical conductivity (1279.7 K): 122 ± 2.5 S/m
- electrical conductivity (1297.2 K): 126 ± 2.5 S/m
- electrical conductivity (1306.2 K): 127 ± 2.6 S/m
- electrical conductivity (1316.7 K): 129 ± 2.6 S/m
- electrical conductivity (1324.2 K): 131 ± 2.6 S/m
- electrical conductivity (1341.7 K): 134 ± 2.7 S/m
- electrical conductivity (1350.2 K): 135 ± 2.7 S/m
- electrical conductivity (1359.7 K): 137 ± 2.8 S/m
- electrical conductivity (1376.7 K): 139 ± 2.8 S/m
- electrical conductivity (1386.7 K): 141 ± 2.8 S/m
- electrical conductivity (1399.2 K): 142 ± 2.9 S/m
- electrical conductivity (1406.2 K): 143 ± 2.9 S/m
- electrical conductivity (1414.2 K): 144 ± 2.9 S/m
- electrical conductivity (1421.2 K): 145 ± 2.9 S/m
